# Laboratory results as given in patent US20240335547A1, “MODIFIED CHOLIC ACID CONJUGATES” (priority 2022, published 2024).
# Legend:
# [1] = test system: HFF (human foreskin fibroblast) cells; experiment: Cytotoxicity in human primary cell cultures (Trypan Blue Staining); type: cell-based; conditions: HFF cells, 48 hours, Trypan Blue Staining
# Experimental: (1) HFF (human foreskin fibroblast) cells (2×105) were seeded with 2 ml of DMEM medium supplemented with 10% FBS in each well of two 12-well tissue culture plates. (2) Cells were cultured for 3 days. CSA-44 was added to test for cell toxicity. Eleven concentrations were tested: 40 μg/ml, 30 μg/ml, […], 17.5 μg/ml, 15 μg/ml, 12.5 μg/ml, 10 μg/ml, 7.5 μg/ml, 5 μg/ml, 2.5 μg/ml, and 1 μg/ml. Samples with concentration of 0 μg/ml were used as the control. Each concentration was tested in duplicates with two wells. (3) Cells were cultured for 48 hours with CSA-44. Trypan Blue Staining was used to determine the numbers of living and dead cells on a hemocytometer. Percentages of living and dead cells in each sample were calculated.
# (1) HFF cells (2×105) were seeded with 2 ml of DMEM medium supplemented with 10% FBS in each well of two 12-well tissue culture plates. (2) Cells were cultured for 3 days. CMA Conjugate was added to test for cell toxicity. Eleven concentrations were tested. They were 100 μg/ml, 80 μg/ml, 60 μg/ml, 50 μg/ml, 40 μg/ml, 30 μg/ml, 25 μg/ml, 20 μg/ml, 15 μg/ml, 10 μg/ml, and 5 μg/ml. Samples with concentration of 0 μg/ml were used as the control. Each concentration was tested in duplicates with two wells. (3) Cells were cultured for 48 hours with CMA Conjugate. […] Percentages of living and dead cells in each sample were calculated.
# human coronavirus 229E = experiment: Therapeutic activity against human coronavirus 229E in HFF cells; type: cell-based; conditions: added 24 hours post infection, cell viability
# Experimental: (1) HFF cells (5×104) were seeded with 1 ml of DMEM media supplemented with 10% FBS in each well of four 24-well tissue culture plates. (2) Cell were cultured for 3 days until HFF cells in each well attained 90% confluency (media was changed 1 day before infection). 10 μl of the 10-time diluted original solution of coronavirus, about 1×10^5 PFU were added into each well. Infection was allowed to proceed overnight. (3) The media was changed 24 hours post infection. CSA-44 was added to test their anti-viral effects. Ten different concentrations of the drug were tested. They were 15 μg/ml, 10 μg/ml, 9 μg/ml, 8 μg/ml, 7 μg/ml, 6 μg/ml, 5 μg/ml, 4 μg/ml, 3 μg/ml, and 2 μg/ml with 0 μg/ml as the control. Each concentration has 12 wells for test. Cells were cultured for two weeks, and cell viability was quantified. CSA-44 was effective in inhibiting viral replication and growth. The values of EC50 (where EC is the concentration of the active that gives 50% of the maximal response) of CSA-44 is identified as 4 μg/ml.
# (1) HFF cells (5×104) were seeded with 1 ml of DMEM media supplemented with 10% FBS in each well of four 24-well tissue culture plates. (2) Cells were cultured for 3 days until HFF cells in each well attained 90% confluency (media was changed 1 day before infection). Ten μl of the 10-time diluted original solution of coronavirus, about 1×10^5 PFU, were added into each well. Infection was allowed to proceed overnight. (3) The media was changed 24 hours post infection. Different concentrations of CSA-44 were added to test their anti-viral effects. Each concentration has 12 wells for test. Cells were cultured in the presence of CSA-44 for […] and cell viability was quantified.
# (1) HFF cells (5×104) were seeded with 1 ml of DMEM media supplemented with 10% FBS in each well of four 24-well tissue culture plates. (2) Cells were cultured for 3 days until HFF cells in each well attained 90% confluency (media was changed 1 day before infection). […] Cells were cultured for two weeks, and cell viability was quantified. […]
compound,measurement,setting,value
CCCCCCCCOC(=O)CC[C@@H](C)[C@H]1CC[C@H]2[C@@H]3[C@H](OC(=O)CCN)C[C@@H]4C[C@H](OC(=O)CCN)CC[C@]4(C)[C@H]3C[C@H](OC(=O)CCN)[C@]12C [CSA-44],CC50,[1],around 15 μg/ml
same,EC50,human coronavirus 229E; cells cultured for three weeks,~4 µg/mL
same,EC50,human coronavirus 229E; cells cultured for two weeks,4 µg/mL
